Test results taken from ChEMBL document CHEMBL3351452, “Chemical synthesis, cytotoxicity, selectivity and bioavailability of 5α-androstane-3α,17β-diol derivatives” (Bioorg Med Chem, 2014).

Legend:
[1] = Cytotoxicity against human peripheral blood lymphocytes assessed as assessed as CD3+/CD4+ T cells population at 30 uM after 5 days by flow cytometry analysis (reference value: 41.4%); format: cell-based; conditions: lymphocyte, 120 h
[2] = Cytotoxicity against human peripheral blood lymphocytes assessed as assessed as CD3+ T cells population at 10 uM after 5 days by flow cytometry analysis (reference value: 73.8%); format: cell-based; conditions: lymphocyte, 120 h
[3] = Cytotoxicity against human peripheral blood lymphocytes assessed as assessed as CD3+ T cells population at 50 uM after 5 days by flow cytometry analysis (reference value: 73.8%); format: cell-based; conditions: lymphocyte, 120 h
[4] = Cytotoxicity against human peripheral blood lymphocytes assessed as assessed as CD3+/CD4+ T cells population at 1 uM after 5 days by flow cytometry analysis (reference value: 41.4%); format: cell-based; conditions: lymphocyte, 120 h
[5] = Cytotoxicity against human peripheral blood lymphocytes assessed as assessed as CD3+/CD8 T cells population at 50 uM after 5 days by flow cytometry analysis (reference value: 15.2 %); format: cell-based; conditions: lymphocyte, 120 h
[6] = Cytotoxicity against human peripheral blood lymphocytes assessed as assessed as CD3+/CD8 T cells population at 10 uM after 5 days by flow cytometry analysis (reference value: 15.2 %); format: cell-based; conditions: lymphocyte, 120 h
[7] = Cytotoxicity against human peripheral blood lymphocytes assessed as assessed as CD3+/CD4+ T cells population at 0.1 uM after 5 days by flow cytometry analysis (reference value: 41.4%); format: cell-based; conditions: lymphocyte, 120 h
[8] = Cytotoxicity against human peripheral blood lymphocytes assessed as assessed as CD4+/CD8+ […] ratio at 50 uM after 5 days by flow cytometry analysis (reference value: 2.7%); format: cell-based; conditions: lymphocyte, 120 h
[9] = Cytotoxicity against human peripheral blood lymphocytes assessed as assessed as CD3+/CD8 T cells population at 5 uM after 5 days by flow cytometry analysis (reference value: 15.2 %); format: cell-based; conditions: lymphocyte, 120 h
[10] = Cytotoxicity against human peripheral blood lymphocytes assessed as assessed as CD3+ T cells population at 1 uM after 5 days by flow cytometry analysis (reference value: 73.8%); format: cell-based; conditions: lymphocyte, 120 h
[11] = Cytotoxicity against human peripheral blood lymphocytes assessed as assessed as CD4+/CD8+ […] ratio at 10 uM after 5 days by flow cytometry analysis (reference value: 2.7 %); format: cell-based; conditions: lymphocyte, 120 h
[12] = Cytotoxicity against human peripheral blood lymphocytes assessed as assessed as CD3+/CD8 T cells population at 30 uM after 5 days by flow cytometry analysis (reference value: 15.2 %); format: cell-based; conditions: lymphocyte, 120 h
[13] = Cytotoxicity against human peripheral blood lymphocytes assessed as assessed as CD19+ B cells population at 0.1 uM after 5 days by flow cytometry analysis (reference value: 2%); format: cell-based; conditions: lymphocyte, 120 h
[14] = Plasma concentration in Sprague-Dawley rat at 2.3 mg/kg, sc measured at 12 hrs by LC/MS/MS analysis; format: ADME, organism-based; parameters: dose 2.3 mg/kg, route subcutaneous
[15] = Cytotoxicity against human peripheral blood lymphocytes assessed as assessed as CD4+/CD8+ […] ratio at 0.1 uM after 5 days by flow cytometry analysis (reference value: 2.7%); format: cell-based; conditions: lymphocyte, 120 h
[16] = Cytotoxicity against human peripheral blood lymphocytes assessed as assessed as CD19+ B cells population at 50 uM after 5 days by flow cytometry analysis (reference value: 2%); format: cell-based; conditions: lymphocyte, 120 h
[17] = Plasma concentration in Sprague-Dawley rat at 2.3 mg/kg, sc measured at 3 hrs by LC/MS/MS analysis; format: ADME, organism-based; parameters: dose 2.3 mg/kg, route subcutaneous
Cytochrome P450 3A4 = Cytochrome P450 3A4 (Homo sapiens, UniProt P08684); assay: Inhibition of CYP3A4 (unknown origin) using AMMC by fluorescence assay; format: ADME
MCF7 = assay: Antiproliferative activity against human MCF7 cells assessed as reduction in cell growth after 24 hrs by MTS assay; format: functional, cell-based; conditions: MCF7, 24 h
[18] = Cytotoxicity against human peripheral blood lymphocytes assessed as assessed as CD3+ T cells population at 30 uM after 5 days by flow cytometry analysis (reference value: 73.8%); format: cell-based; conditions: lymphocyte, 120 h
[19] = Cytotoxicity against mouse WEHI13 cells assessed as cell proliferation after 48 hrs by MTT assay; format: cell-based; conditions: WEHI13, 48 h
[20] = Cytotoxicity against human peripheral blood lymphocytes assessed as assessed as CD19+ B cells population at 5 uM after 5 days by flow cytometry analysis (reference value: 2%); format: cell-based; conditions: lymphocyte, 120 h
[21] = Cytotoxicity against human peripheral blood lymphocytes assessed as assessed as CD3+/CD8 T cells population at 0.1 uM after 5 days by flow cytometry analysis (reference value: 15.2 %); format: cell-based; conditions: lymphocyte, 120 h
[22] = Cytotoxicity against human peripheral blood lymphocytes assessed as assessed as CD3+/CD4+ T cells population at 10 uM after 5 days by flow cytometry analysis (reference value: 41.4 %); format: cell-based; conditions: lymphocyte, 120 h
[23] = Cytotoxicity against human peripheral blood lymphocytes assessed as assessed as CD4+/CD8+ […] ratio at 1 uM after 5 days by flow cytometry analysis (reference value: 2.7%); format: cell-based; conditions: lymphocyte, 120 h
[24] = Cytotoxicity against human peripheral blood lymphocytes assessed as assessed as CD19+ B cells population at 10 uM after 5 days by flow cytometry analysis (reference value: 2%); format: cell-based; conditions: lymphocyte, 120 h
[25] = Cytotoxicity against human peripheral blood lymphocytes assessed as assessed as CD19+ B cells population at 30 uM after 5 days by flow cytometry analysis (reference value: 2%); format: cell-based; conditions: lymphocyte, 120 h
[26] = Cytotoxicity against human peripheral blood lymphocytes assessed as assessed as CD3+/CD4+ T cells population at 5 uM after 5 days by flow cytometry analysis (reference value: 41.4%); format: cell-based; conditions: lymphocyte, 120 h
[27] = Cytotoxicity against human peripheral blood lymphocytes assessed as assessed as CD3+/CD4+ T cells population at 50 uM after 5 days by flow cytometry analysis (reference value: 41.4%); format: cell-based; conditions: lymphocyte, 120 h
T47D = assay: Antiproliferative activity against human T47D cells assessed as reduction in cell growth after 24 hrs by MTS assay; format: functional, cell-based
[28] = Cytotoxicity against human peripheral blood lymphocytes assessed as assessed as CD4+/CD8+ […] ratio at 5 uM after 5 days by flow cytometry analysis (reference value: 2.7%); format: cell-based; conditions: lymphocyte, 120 h
[29] = Cytotoxicity against human peripheral blood lymphocytes assessed as assessed as CD3+ T cells population at 0.1 uM after 5 days by flow cytometry analysis (reference value: 73.8%); format: cell-based; conditions: lymphocyte, 120 h
[30] = Cytotoxicity against human peripheral blood lymphocytes assessed as assessed as CD4+/CD8+ […] ratio at 30 uM after 5 days by flow cytometry analysis (reference value: 2.7%); format: cell-based; conditions: lymphocyte, 120 h
[31] = Cytotoxicity against human peripheral blood lymphocytes assessed as assessed as CD3+/CD8 T cells population at 1 uM after 5 days by flow cytometry analysis (reference value: 15.2%); format: cell-based; conditions: lymphocyte, 120 h
LNCaP = assay: Antiproliferative activity against human LNCAP cells assessed as reduction in cell growth after 24 hrs by MTS assay; format: functional, cell-based
[32] = Cytotoxicity against human peripheral blood lymphocytes assessed as assessed as CD19+ B cells population at 1 uM after 5 days by flow cytometry analysis (reference value: 2%); format: cell-based; conditions: lymphocyte, 120 h
Cytochrome P450 2D6 = Cytochrome P450 2D6 (Homo sapiens, UniProt P10635); assay: Inhibition of CYP2D6 (unknown origin) using AMMC by fluorescence assay; format: ADME
[33] = Cytotoxicity against human peripheral blood lymphocytes assessed as assessed as CD3+ T cells population at 5 uM after 5 days by flow cytometry analysis (reference value: 73.8%); format: cell-based; conditions: lymphocyte, 120 h
HL-60 = assay: Antiproliferative activity against human HL-60 cells assessed as reduction in cell growth after 24 hrs by MTS assay; format: functional, cell-based; conditions: HL-60, 24 h

Cytochrome P450 3A4, sequence (P08684 whole entry): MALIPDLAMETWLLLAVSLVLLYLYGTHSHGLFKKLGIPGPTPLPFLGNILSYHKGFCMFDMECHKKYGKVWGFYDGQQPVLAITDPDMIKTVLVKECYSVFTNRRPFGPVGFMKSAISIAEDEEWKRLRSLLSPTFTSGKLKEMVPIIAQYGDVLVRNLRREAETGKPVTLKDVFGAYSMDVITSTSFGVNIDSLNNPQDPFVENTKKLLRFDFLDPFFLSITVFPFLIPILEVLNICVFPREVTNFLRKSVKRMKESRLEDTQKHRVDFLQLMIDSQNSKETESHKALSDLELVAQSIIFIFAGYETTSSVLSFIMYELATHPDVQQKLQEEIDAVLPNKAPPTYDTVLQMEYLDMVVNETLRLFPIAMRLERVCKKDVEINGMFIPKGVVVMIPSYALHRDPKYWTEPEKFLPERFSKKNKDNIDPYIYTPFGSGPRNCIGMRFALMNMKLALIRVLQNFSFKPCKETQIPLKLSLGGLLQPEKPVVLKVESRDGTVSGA
Cytochrome P450 2D6, sequence (P10635 whole entry): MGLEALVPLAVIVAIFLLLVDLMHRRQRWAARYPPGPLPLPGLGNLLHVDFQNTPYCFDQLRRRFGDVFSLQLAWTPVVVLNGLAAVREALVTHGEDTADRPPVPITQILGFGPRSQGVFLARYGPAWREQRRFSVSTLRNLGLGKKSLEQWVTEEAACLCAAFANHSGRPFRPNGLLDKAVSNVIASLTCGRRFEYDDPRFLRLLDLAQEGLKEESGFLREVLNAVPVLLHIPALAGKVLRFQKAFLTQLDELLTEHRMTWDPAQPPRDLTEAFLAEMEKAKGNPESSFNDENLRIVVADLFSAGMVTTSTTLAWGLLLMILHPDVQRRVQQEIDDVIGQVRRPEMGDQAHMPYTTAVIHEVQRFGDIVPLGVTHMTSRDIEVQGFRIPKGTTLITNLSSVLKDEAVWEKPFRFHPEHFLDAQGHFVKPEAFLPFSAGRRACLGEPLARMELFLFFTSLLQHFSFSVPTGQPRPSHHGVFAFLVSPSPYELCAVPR

Question: Which results are given for `C#C[C@]1(O)CC[C@H]2[C@@H]3CC[C@H]4C[C@H](O)[C@@H](N5CCN(C(=O)[C@@H]6CCCN6C(=O)c6ccc7ccccc7n6)CC5)C[C@]4(C)[C@H]3CC[C@@]21C`?
Answer: Activity [1]: 21%; Activity [2]: 55.1%; Activity [3]: 62.1%; Activity [4]: 16.6%; Activity [5]: 0.1%; Activity [6]: 1.6%; Activity [7]: 16.9%; Activity [8]: 231%; Activity [9]: 3.3%; Activity [10]: 53.7%; Activity [11]: 11.3%; Activity [12]: 0.1%; Activity [13]: 1.1%; concentration at 12 h [14]: 15.7 ng/mL; Activity [15]: 1.4%; Activity [16]: 1.8%; concentration at 3 h [17]: 151 ng/mL; IC50 (Cytochrome P450 3A4): 3800 nM; IC50 (MCF7): 100 nM; Activity [18]: 58.5%; IC50 [19]: 1100 nM; Activity [20]: 1.7%; Activity [21]: 12.1%; Activity [22]: 18.4%; Activity [23]: 5%; Activity [24]: 1.4%; Activity [25]: 1.9%; Activity [26]: 19.5%; Activity [27]: 23.1%; IC50 (T47D): 100 nM; Activity [28]: 6%; Activity [29]: 57.5%; Activity [30]: 216%; Activity [31]: 3.3%; IC50 (LNCaP): 2000 nM; Activity [32]: 2.2%; IC50 (Cytochrome P450 2D6): 25000 nM; Activity [33]: 59.1%; IC50 (HL-60): 100 nM
